Measurements: ChEMBL document CHEMBL5046271, “Design, Synthesis, and Biological Evaluation of 2-Formyl Tetrahydronaphthyridine Urea Derivatives as New Selective Covalently Reversible FGFR4 Inhibitors” (J Med Chem, 2022)

Tests used:
[1] = tested on: Huh-7; assay: Cytotoxicity against human Huh-7 cells harboring FGF19/FGFR4 assessed as inhibition of cell growth
[2] = tested on: Hep 3B2; assay: Cytotoxicity against human Hep 3B2.1-7 cells harboring FGF19/FGFR4 assessed as inhibition of cell growth; settings: Hep3B
[3] = tested on: MDA-MB-453; assay: Cytotoxicity against human MDA-MB-453 cells harboring FGF19/FGFR4 assessed as inhibition of cell growth
[4] = tested on: NCI-H1581; assay: Cytotoxicity against human NCI-H1581 cells harboring FGF19/FGFR4 assessed as inhibition of cell growth
[5] = target: Fibroblast growth factor receptor 1 (Homo sapiens, UniProt P11362); assay: Inhibition of FGFR1 (unknown origin) using Tyr 04 peptide substrate measured after 2 hrs by FRET assay
[6] = target: Fibroblast growth factor receptor 2 (Homo sapiens, UniProt P21802); assay: Inhibition of FGFR2 (unknown origin) using Tyr 04 peptide substrate measured after 2 hrs by FRET assay
[7] = target: Fibroblast growth factor receptor 3 (Homo sapiens, UniProt P22607); assay: Inhibition of FGFR3 (unknown origin) using Tyr 04 peptide substrate measured after 2 hrs by FRET assay
Fibroblast growth factor receptor 3, sequence (P22607 whole entry): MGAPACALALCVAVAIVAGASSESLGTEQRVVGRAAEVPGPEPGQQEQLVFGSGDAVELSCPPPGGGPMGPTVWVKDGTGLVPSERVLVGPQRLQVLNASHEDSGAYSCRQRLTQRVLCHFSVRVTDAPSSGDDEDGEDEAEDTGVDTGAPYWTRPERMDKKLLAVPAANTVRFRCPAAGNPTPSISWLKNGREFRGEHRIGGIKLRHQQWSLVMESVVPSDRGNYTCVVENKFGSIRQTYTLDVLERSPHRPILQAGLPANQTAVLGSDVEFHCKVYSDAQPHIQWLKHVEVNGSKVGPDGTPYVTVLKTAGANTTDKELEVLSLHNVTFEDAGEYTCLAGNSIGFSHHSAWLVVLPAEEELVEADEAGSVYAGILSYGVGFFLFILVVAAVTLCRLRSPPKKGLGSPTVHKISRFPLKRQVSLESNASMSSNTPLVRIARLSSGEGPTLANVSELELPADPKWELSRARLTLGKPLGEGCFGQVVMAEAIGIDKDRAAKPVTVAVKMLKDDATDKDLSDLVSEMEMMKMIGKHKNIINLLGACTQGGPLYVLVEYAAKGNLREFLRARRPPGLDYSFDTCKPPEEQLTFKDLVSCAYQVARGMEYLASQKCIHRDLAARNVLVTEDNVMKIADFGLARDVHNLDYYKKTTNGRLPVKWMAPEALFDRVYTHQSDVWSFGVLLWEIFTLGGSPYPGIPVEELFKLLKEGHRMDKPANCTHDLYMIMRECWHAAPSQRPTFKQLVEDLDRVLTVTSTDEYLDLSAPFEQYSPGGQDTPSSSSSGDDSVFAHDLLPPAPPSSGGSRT

Fibroblast growth factor receptor 1, sequence (P11362 whole entry): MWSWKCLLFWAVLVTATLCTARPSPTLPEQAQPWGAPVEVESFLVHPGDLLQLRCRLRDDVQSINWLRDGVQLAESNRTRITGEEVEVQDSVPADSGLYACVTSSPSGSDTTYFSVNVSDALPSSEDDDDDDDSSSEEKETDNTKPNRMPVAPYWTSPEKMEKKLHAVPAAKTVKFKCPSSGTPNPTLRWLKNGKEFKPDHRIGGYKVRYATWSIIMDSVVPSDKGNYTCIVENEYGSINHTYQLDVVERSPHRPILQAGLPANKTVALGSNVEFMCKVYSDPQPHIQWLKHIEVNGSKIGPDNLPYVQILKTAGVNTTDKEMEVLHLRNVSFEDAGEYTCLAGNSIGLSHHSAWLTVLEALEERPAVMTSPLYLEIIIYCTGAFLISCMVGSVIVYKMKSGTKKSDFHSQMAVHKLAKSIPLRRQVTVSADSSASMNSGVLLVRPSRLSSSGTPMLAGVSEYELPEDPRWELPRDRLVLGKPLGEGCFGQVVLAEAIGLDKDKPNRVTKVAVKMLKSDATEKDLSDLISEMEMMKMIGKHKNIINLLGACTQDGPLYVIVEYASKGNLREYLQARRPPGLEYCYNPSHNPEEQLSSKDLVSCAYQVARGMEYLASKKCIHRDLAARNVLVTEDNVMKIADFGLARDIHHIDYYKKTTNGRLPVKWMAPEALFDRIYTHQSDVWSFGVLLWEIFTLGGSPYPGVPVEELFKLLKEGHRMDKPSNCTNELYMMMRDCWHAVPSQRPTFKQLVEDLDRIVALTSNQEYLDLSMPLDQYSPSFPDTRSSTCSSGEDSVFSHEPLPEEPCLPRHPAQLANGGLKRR
Fibroblast growth factor receptor 2, sequence (P21802 whole entry): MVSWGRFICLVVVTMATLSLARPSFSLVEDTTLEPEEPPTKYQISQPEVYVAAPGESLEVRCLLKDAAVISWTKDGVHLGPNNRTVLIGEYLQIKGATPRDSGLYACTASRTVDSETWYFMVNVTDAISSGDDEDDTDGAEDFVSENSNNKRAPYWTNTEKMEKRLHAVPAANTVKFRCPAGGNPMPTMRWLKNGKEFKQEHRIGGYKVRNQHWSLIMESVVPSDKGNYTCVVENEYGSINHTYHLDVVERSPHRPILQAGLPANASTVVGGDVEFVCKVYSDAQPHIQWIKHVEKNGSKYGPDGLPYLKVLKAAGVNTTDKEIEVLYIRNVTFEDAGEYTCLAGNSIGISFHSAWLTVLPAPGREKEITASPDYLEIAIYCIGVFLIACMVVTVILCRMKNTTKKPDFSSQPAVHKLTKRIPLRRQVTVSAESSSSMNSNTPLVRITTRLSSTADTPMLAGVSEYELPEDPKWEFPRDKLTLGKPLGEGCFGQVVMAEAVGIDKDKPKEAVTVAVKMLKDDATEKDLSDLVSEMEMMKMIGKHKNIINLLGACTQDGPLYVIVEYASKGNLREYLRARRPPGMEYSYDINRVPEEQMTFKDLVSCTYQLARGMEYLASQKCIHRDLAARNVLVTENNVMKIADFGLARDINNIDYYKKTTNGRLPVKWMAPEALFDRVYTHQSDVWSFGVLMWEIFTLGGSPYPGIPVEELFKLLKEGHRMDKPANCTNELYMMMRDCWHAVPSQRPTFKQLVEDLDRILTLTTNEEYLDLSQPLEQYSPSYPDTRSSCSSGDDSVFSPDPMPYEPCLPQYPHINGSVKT

IC50 [5]	IC50 [6]	IC50 [7]	Compound	IC50 [1]	IC50 [2]	IC50 [3]	IC50 [4]
			COCCNc1cc(NC(=O)N2CCCc3cc(CN4CCN(C)CC4=O)c(C=O)nc32)ncc1C#N [FGF401]	0.0089 µM	0.21 µM	0.92 µM	> 3 µM
> 10 µM	> 10 µM	> 10 µM	CC(C)Oc1cc(NC(=O)N2CCCc3cc(CN4CCN(C)CC4=O)c(C=O)nc32)ncc1C#Cc1ccccn1	0.00624 µM	0.658 µM	1.33 µM	> 3 µM
> 10 µM	> 10 µM	> 10 µM	COCCNc1cc(NC(=O)N2CCCc3ccc(C=O)nc32)ncc1C#Cc1ccccn1				
> 10 µM	> 10 µM	> 10 µM	COc1cc(C#Cc2cnc(NC(=O)N3CCCc4cc(CN5CCN(C)CC5=O)c(C=O)nc43)cc2OC(C)C)cc(OC)c1	0.0658 µM	1.34 µM	0.466 µM	> 3 µM
> 10 µM	> 10 µM	> 10 µM	C=CC(=O)Nc1cccc(C)c1Nc1ncc2cc(-c3c(Cl)c(OC)cc(OC)c3Cl)ccc2n1		0.55 µM	0.12 µM	> 43.3 µM
> 10 µM	> 10 µM	> 10 µM	O=Cc1ccc2c(n1)N(C(=O)Nc1cc(NC3CC3)c(C#Cc3ccccn3)cn1)CCC2				
> 10 µM	> 10 µM	> 10 µM	COC[C@@H](C)Nc1cc(NC(=O)N2CCCc3ccc(C=O)nc32)ncc1C#Cc1cccnc1				
> 10 µM	> 10 µM	> 10 µM	COc1cccc(CCc2cnc(NC(=O)N3CCCc4ccc(C=O)nc43)cc2OC(C)C)c1				
> 10 µM	> 10 µM	> 10 µM	CC(C)Oc1cc(NC(=O)N2CCCc3ccc(C=O)nc32)ncc1C#Cc1ccccn1				
> 10 µM	> 10 µM	> 10 µM	CC(C)Oc1cc(NC(=O)N2CCCc3ccc(C=O)nc32)ncc1C#Cc1ccncc1				
> 10 µM	> 10 µM	> 10 µM	COc1cccc(C#Cc2cnc(NC(=O)N3CCCc4ccc(C=O)nc43)cc2OC(C)C)c1				
> 10 µM	> 10 µM	> 10 µM	COCCOc1cc(NC(=O)N2CCCc3ccc(C=O)nc32)ncc1C#Cc1cccnc1				
> 10 µM	> 10 µM	> 10 µM	COc1cc(OC)cc(-c2cnc(NC(=O)N3CCCc4ccc(C=O)nc43)cc2OC(C)C)c1				
> 10 µM	> 10 µM	> 10 µM	CC(C)Oc1cc(NC(=O)N2CCCc3ccc(C=O)nc32)ncc1C#Cc1cncn1C				
> 10 µM	> 10 µM	> 10 µM	COc1cc(CCc2cnc(NC(=O)N3CCCc4cc(CN5CCN(C)CC5=O)c(C=O)nc43)cc2OC(C)C)cc(OC)c1	0.0149 µM	1.45 µM	2.26 µM	> 3 µM
> 10 µM	> 10 µM	> 10 µM	O=Cc1ccc2c(n1)N(C(=O)Nc1cc(NC3CCCC3)c(C#Cc3ccccn3)cn1)CCC2				

IC50 [5]	IC50 [6]	IC50 [7]	Compound	IC50 [1]	IC50 [2]	IC50 [3]	IC50 [4]
> 10 µM	> 10 µM	> 10 µM	CC(C)Oc1cc(NC(=O)N2CCCc3ccc(C=O)nc32)ncc1C#Cc1cncnc1				
> 10 µM	> 10 µM	> 10 µM	COC[C@H](C)Nc1cc(NC(=O)N2CCCc3ccc(C=O)nc32)ncc1C#Cc1cccnc1				
> 10 µM	> 10 µM	> 10 µM	O=Cc1ccc2c(n1)N(C(=O)Nc1cc(F)c(C#Cc3ccccn3)cn1)CCC2				
> 10 µM	> 10 µM	> 10 µM	CC(C)CNc1cc(NC(=O)N2CCCc3ccc(C=O)nc32)ncc1C#Cc1ccccn1				
> 10 µM	> 10 µM	> 10 µM	COCCNc1cc(NC(=O)N2CCCc3ccc(C=O)nc32)ncc1C#N				
> 10 µM	> 10 µM	> 10 µM	COc1cc(CCc2cnc(NC(=O)N3CCCc4ccc(C=O)nc43)cc2OC(C)C)cc(OC)c1				
> 10 µM	> 10 µM	> 10 µM	COc1cc(OC)c(Cl)c(C#Cc2cnc(NC(=O)N3CCCc4ccc(C=O)nc43)cc2OC(C)C)c1Cl				
> 10 µM	> 10 µM	> 10 µM	O=Cc1ccc2c(n1)N(C(=O)Nc1cc(F)c(C#Cc3cccnc3)cn1)CCC2				
> 10 µM	> 10 µM	> 10 µM	CC(C)Oc1cc(NC(=O)N2CCCc3ccc(C=O)nc32)ncc1C#Cc1cccnc1				
> 10 µM	> 10 µM	> 10 µM	CC(C)Oc1cc(NC(=O)N2CCCc3ccc(C=O)nc32)ncc1C#Cc1ccc(C#N)cc1				
> 10 µM	> 10 µM	> 10 µM	COc1cc(C#Cc2cnc(NC(=O)N3CCCc4ccc(C=O)nc43)cc2OC(C)C)cc(OC)c1				
> 10 µM	> 10 µM	> 10 µM	COCCNc1cc(NC(=O)N2CCCc3ccc(C=O)nc32)ncc1C#Cc1cccnc1				
> 10 µM	> 10 µM	> 10 µM	COCCOc1cc(NC(=O)N2CCCc3ccc(C=O)nc32)ncc1C#Cc1ccccn1				
> 10 µM	> 10 µM	> 10 µM	CC(C)Oc1cc(NC(=O)N2CCCc3ccc(C=O)nc32)ncc1C#Cc1cnccn1				
> 10 µM	> 10 µM	> 10 µM	CC(C)Oc1cc(NC(=O)N2CCCc3ccc(C=O)nc32)ncc1C#Cc1ccccc1				
> 10 µM	> 10 µM	> 10 µM	CC(C)Oc1cc(NC(=O)N2CCCc3ccc(C=O)nc32)ncc1C#Cc1cccc(C#N)c1				
